The structures appear in SMILES notation. Calls of active or inactive are those of the source. No rule for the calls is given here.

This note sets out measurements from PubChem BioAssay AID1259407 (Chemical Carcinogenesis Research Information System (CCRIS), 2018).

The series concerns CCRIS mutagenicity, Ames/micronucleus/aberration tests. Description: CCRIS mutagenicity studies.
Setting [1] is: Test System: AMES SALMONELLA TYPHIMURIUM, Strain/Indicator: TA98, Metabolic Activation: NONE, Method: PREINCUBATION
Where [2] appears, read: Test System: AMES SALMONELLA TYPHIMURIUM, Strain/Indicator: TA98, Metabolic Activation: NONE, Method: STANDARD PLATE.
Setting [3] is: Test System: AMES SALMONELLA TYPHIMURIUM, Strain/Indicator: TA100, Metabolic Activation: NONE, Method: PREINCUBATION
The mark [4] stands for this setting: Test System: AMES SALMONELLA TYPHIMURIUM, Strain/Indicator: TA100, Metabolic Activation: NONE, Method: STANDARD PLATE.

For `CCCCC1C(=O)N(c2ccccc2)N(c2ccc(O)cc2)C1=O` (stereo unspecified), the mutagenic call is, setting by setting: (Test System: AMES SALMONELLA TYPHIMURIUM, Strain/Indicator: TA97A, Metabolic Activation: NONE, Method: STANDARD PLATE) “inactive; negative”; (Test System: AMES SALMONELLA TYPHIMURIUM, Strain/Indicator: TA97A, Metabolic Activation: RAT LIVER S-9, PHENOBARBITAL, Method: STANDARD PLATE) “inactive; negative”; (Test System: AMES SALMONELLA TYPHIMURIUM, Strain/Indicator: TA98, Metabolic Activation: GUINEA PIG, LIVER, S-9, PCB, Method: PREINCUBATION) “inactive; negative”; (Test System: AMES SALMONELLA TYPHIMURIUM, Strain/Indicator: TA98, Metabolic Activation: HAMSTER, LIVER, S-9, PCB, Method: PREINCUBATION) “inactive; negative”; (Test System: AMES SALMONELLA TYPHIMURIUM, Strain/Indicator: TA98, Metabolic Activation: MOUSE, LIVER, S-9, PCB, Method: PREINCUBATION) “inactive; negative”; under setting [1], “inactive; negative”. Moreover, the mutagenic call was “inactive; negative” under setting [2]; “inactive; negative” (Test System: AMES SALMONELLA TYPHIMURIUM, Strain/Indicator: TA98, Metabolic Activation: RAT LIVER S-9, PHENOBARBITAL, Method: STANDARD PLATE); “inactive; negative” (Test System: AMES SALMONELLA TYPHIMURIUM, Strain/Indicator: TA98, Metabolic Activation: RAT, LIVER, S-9, PCB, Method: PREINCUBATION); “inactive; negative” (Test System: AMES SALMONELLA TYPHIMURIUM, Strain/Indicator: TA100, Metabolic Activation: GUINEA PIG, LIVER, S-9, PCB, Method: PREINCUBATION); “inactive; negative” (Test System: AMES SALMONELLA TYPHIMURIUM, Strain/Indicator: TA100, Metabolic Activation: HAMSTER, LIVER, S-9, PCB, Method: PREINCUBATION); “inactive; negative” (Test System: AMES SALMONELLA TYPHIMURIUM, Strain/Indicator: TA100, Metabolic Activation: MOUSE, LIVER, S-9, PCB, Method: PREINCUBATION). In addition, the mutagenic call by setting is: under setting [3], “inactive; negative”; under setting [4], “inactive; negative”; (Test System: AMES SALMONELLA TYPHIMURIUM, Strain/Indicator: TA100, Metabolic Activation: RAT LIVER S-9 PHENOBARBITAL, Method: STANDARD PLATE) “inactive; negative”; (Test System: AMES SALMONELLA TYPHIMURIUM, Strain/Indicator: TA100, Metabolic Activation: RAT, LIVER, S-9, PCB, Method: PREINCUBATION) “active; positive”; (Test System: AMES SALMONELLA TYPHIMURIUM, Strain/Indicator: TA102, Metabolic Activation: NONE, Method: STANDARD PLATE) “inactive; negative”; (Test System: AMES SALMONELLA TYPHIMURIUM, Strain/Indicator: TA102, Metabolic Activation: RAT LIVER S-9, PHENOBARBITAL, Method: STANDARD PLATE) “inactive; negative”.

As for `Cc1cc(C)cc(OC(=O)N(C)N=O)c1`, the mutagenic call (Test System: E. COLI WP2, Strain/Indicator: WP2, Metabolic Activation: NONE, Method: STANDARD PLATE) was “active; positive”.

Consider `CC(=O)Nc1ccc(S(=O)(=O)O)c2cc(S(=O)(=O)O)c(N=Nc3ccc(N=Nc4ccc(S(=O)(=O)O)cc4)c4ccc(S(=O)(=O)O)cc34)c(O)c12`, for which the mutagenic call runs as follows: (Test System: AMES SALMONELLA TYPHIMURIUM, Strain/Indicator: TA98, Metabolic Activation: HAMSTER, LIVER, S-9, AROCLOR 1254, Method: STANDARD PLATE) “inactive; negative”; under setting [2], “inactive; negative”; (Test System: AMES SALMONELLA TYPHIMURIUM, Strain/Indicator: TA98, Metabolic Activation: RAT, LIVER, S-9, AROCLOR 1254, Method: STANDARD PLATE) “inactive; negative”; (Test System: AMES SALMONELLA TYPHIMURIUM, Strain/Indicator: TA100, Metabolic Activation: HAMSTER, LIVER, S-9, AROCLOR 1254, Method: STANDARD PLATE) “inactive; negative”; under setting [4], “inactive; negative”; (Test System: AMES SALMONELLA TYPHIMURIUM, Strain/Indicator: TA100, Metabolic Activation: RAT, LIVER, S-9, AROCLOR 1254, Method: STANDARD PLATE) “inactive; negative”. Also, the mutagenic call was “inactive; negative” (Test System: AMES SALMONELLA TYPHIMURIUM, Strain/Indicator: TA1535, Metabolic Activation: HAMSTER, LIVER, S-9, AROCLOR 1254, Method: STANDARD PLATE); “inactive; negative” (Test System: AMES SALMONELLA TYPHIMURIUM, Strain/Indicator: TA1535, Metabolic Activation: NONE, Method: STANDARD PLATE); “inactive; negative” (Test System: AMES SALMONELLA TYPHIMURIUM, Strain/Indicator: TA1535, Metabolic Activation: RAT, LIVER, S-9, AROCLOR 1254, Method: STANDARD PLATE); “inactive; negative” (Test System: AMES SALMONELLA TYPHIMURIUM, Strain/Indicator: TA1537, Metabolic Activation: HAMSTER, LIVER, S-9, AROCLOR 1254, Method: STANDARD PLATE); “inactive; negative” (Test System: AMES SALMONELLA TYPHIMURIUM, Strain/Indicator: TA1537, Metabolic Activation: NONE, Method: STANDARD PLATE); “inactive; negative” (Test System: AMES SALMONELLA TYPHIMURIUM, Strain/Indicator: TA1537, Metabolic Activation: RAT, LIVER, S-9, AROCLOR 1254, Method: STANDARD PLATE). Moreover, the mutagenic call was “inactive; negative. reevaluation of results: negative” (Test System: MOUSE LYMPHOMA, Strain/Indicator: L5178Y (TK+/TK-), Metabolic Activation: NONE, Method: SUSPENSION/PLATE) and “active; positive. reevaluation of results: equivocal” (Test System: MOUSE LYMPHOMA, Strain/Indicator: L5178Y (TK+/TK-), Metabolic Activation: RAT, LIVER, S-9, AROCLOR 1254, Method: SUSPENSION/PLATE).

With `CCOc1ccc(NC(N)=O)cc1`, the mutagenic call (Test System: AMES SALMONELLA TYPHIMURIUM, Strain/Indicator: TA98, Metabolic Activation: HAMSTER, LIVER, S-9, AROCLOR 1254, Method: PREINCUBATION) was “inactive; negative”; the mutagenic call under setting [1] was “inactive; negative”; the mutagenic call (Test System: AMES SALMONELLA TYPHIMURIUM, Strain/Indicator: TA98, Metabolic Activation: RAT, LIVER, S-9, AROCLOR 1254, Method: PREINCUBATION) is “inactive; negative”; the mutagenic call (Test System: AMES SALMONELLA TYPHIMURIUM, Strain/Indicator: TA100, Metabolic Activation: HAMSTER, LIVER, S-9, AROCLOR 1254, Method: PREINCUBATION) is “inactive; negative”; the mutagenic call under setting [3] was “inactive; negative”; the mutagenic call (Test System: AMES SALMONELLA TYPHIMURIUM, Strain/Indicator: TA100, Metabolic Activation: RAT, LIVER, S-9, AROCLOR 1254, Method: PREINCUBATION) was “inactive; negative”. For the same compound, the mutagenic call by setting is: (Test System: AMES SALMONELLA TYPHIMURIUM, Strain/Indicator: TA1535, Metabolic Activation: HAMSTER, LIVER, S-9, AROCLOR 1254, Method: PREINCUBATION) “inactive; negative”; (Test System: AMES SALMONELLA TYPHIMURIUM, Strain/Indicator: TA1535, Metabolic Activation: NONE, Method: PREINCUBATION) “inactive; negative”; (Test System: AMES SALMONELLA TYPHIMURIUM, Strain/Indicator: TA1535, Metabolic Activation: RAT, LIVER, S-9, AROCLOR 1254, Method: PREINCUBATION) “inactive; negative”; (Test System: AMES SALMONELLA TYPHIMURIUM, Strain/Indicator: TA1537, Metabolic Activation: HAMSTER, LIVER, S-9, AROCLOR 1254, Method: PREINCUBATION) “inactive; negative”; (Test System: AMES SALMONELLA TYPHIMURIUM, Strain/Indicator: TA1537, Metabolic Activation: NONE, Method: PREINCUBATION) “inactive; negative”; (Test System: AMES SALMONELLA TYPHIMURIUM, Strain/Indicator: TA1537, Metabolic Activation: RAT, LIVER, S-9, AROCLOR 1254, Method: PREINCUBATION) “inactive; negative”.

For `CCOC(=O)C(C)Br` (stereo unspecified), the mutagenic call under setting [4] was “active; positive”.
